Results from article PMC12226970, “A subcellularly targeted photocaged inhibitor for mitochondrial carbonic anhydrase V” (Dalton Transactions (Cambridge, England : 2003), 2025).

Molecular target: T1, bCA-II (Bos taurus, UniProt P00921)
T1 construct: gene CA2
Assay: NPA (4-nitrophenyl acetate) hydrolysis assay with isolated bCA-II after […] nm photodeprotection of PCEM
Type: biochemical

T1 sequence (P00921 2-260): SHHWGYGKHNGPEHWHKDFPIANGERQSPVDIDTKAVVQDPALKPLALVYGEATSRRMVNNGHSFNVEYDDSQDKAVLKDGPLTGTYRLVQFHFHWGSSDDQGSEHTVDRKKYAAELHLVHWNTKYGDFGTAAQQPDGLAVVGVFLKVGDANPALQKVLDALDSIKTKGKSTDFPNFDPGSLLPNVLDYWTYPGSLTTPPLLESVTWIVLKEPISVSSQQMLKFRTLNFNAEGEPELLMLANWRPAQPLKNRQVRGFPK

IC50: 2900 nM
Compound: NS(=O)(=O)c1nc2ccc(OCCC[n+]3ccccc3)cc2s1 [dPCEM]
